The values that follow come from US8034371B2, “Intranasal compositions” (Archimedes Development Limited, priority 2003, dated 2011).

Structures can show the parent of a compound that is named as a salt.

A short description of data set [1]: Pharmacokinetic performance of intranasal and IV zolpidem formulations in sheep (Example 6). To be noted: for Tmax: intranasal, zolpidem dose 20 mg, mean n = 5. The procedure:
A group of five female sheep was used, each weighing around 45 kg. The formulations were administered to a randomised cross-over design. […] This dose was provided by transferring 3.5 ml of the test formulation into a glass bottle, attaching a Valois VP7 spray pump and actuator to the bottle, priming the pump and then administering two 0.1 ml sprays into each nostril.
Blood samples were collected over a 360 minute period following dosing and plasma separated. Plasma samples were assayed by an HPLC method for zolpidem content. Pharmacokinetic parameters were calculated from the plasma data.

Data set [2] is described as follows: Saturated solubility of zolpidem tartrate in SBE-CD solutions with and without chitosan, UV 296 nm (Example 2). To be noted: aqueous SBE-CD solution, 18 °C, aqueous with cosolvent or surfactant or cyclodextrin, thermodynamic from solid. The format is physicochemical. The procedure: A stock solution was prepared containing 400 mg/ml SBE-CD in water and then dilutions made to 100, 150, 200, 250 and 300 mg/ml. Into 2 ml portions of the stock and diluted SBE-CD solutions was dissolved 10 mg of chitosan glutamate (Protasan UPG213, NovaMatrix, Drammen, Norway). To each of these samples of SBE-CD/chitosan solution and to each of six chitosan-free 2 ml samples of SBE-CD solutions were added 140 mg samples of zolpidem tartrate. The samples were left to stir overnight at room temperature (18° C.). If during this time all the drug dissolved, further amounts were added until a suspension was formed (i.e. saturated drug solution formed). After further stirring for up to 72 hours, suspensions were filtered (0.45 μm filter, Gelman, Portsmouth, UK) to recover saturated zolpidem tartrate solutions. The filtrate samples were diluted in water and the UV absorbance at 296 nm measured. By reference to a calibration curve of UV absorbance (296 nm) vs. zolpidem concentration, the concentration of zolpidem in the samples was calculated. Solubility data are presented in Table 2 and presented graphically in FIG. 1.

A short description of data set [3]: Semi-quantitative solubility of zolpidem tartrate in different cyclodextrin solutions (Example 1). The format is physicochemical. Particulars: aqueous cyclodextrin solution, aqueous with cosolvent or surfactant or cyclodextrin, thermodynamic from solid, room temperature. As to the method:
A semi-quantitative comparison was made of the ability of different cyclodextrins to enhance the aqueous solubility of zolpidem tartrate.
Aqueous solutions were prepared containing 200, 300 and 400 mg/ml of three types of cyclodextrin. These were hydroxypropyl-β-cyclodextrin (HP-CD) (Cavamax® W7 HP Pharma, Wacker, Germany), methylated-β-cyclodextrin (M-CD) (Cavamax® W7 M Pharma, Wacker) and sulfobutylether-β-cyclodextrin (SBE-CD) (Captisol®, CyDex, USA). 25 mg samples of zolpidem tartrate (ZMC, Zheijang, Hangzhou, China) were added to a 0.5 ml portion of each cyclodextrin solution. The mixtures (containing 50 mg/ml drug) were stirred overnight at room temperature. If drug dissolved then more was added. If undissolved drug remained then an additional 0.5 ml of cyclodextrin solution was added and stirring continued. From this experiment an estimate could be made of zolpidem tartrate solubility in the different cyclodextrin solutions.

For the compound `Cc1ccc(-c2nc3ccc(C)cn3c2CC(=O)N(C)C)cc1` [zolpidem, N,N,6-trimethyl-2-(4-methylphenyl)-imidazo[1,2-a]pyridine-3-acetamide], the Tmax in data set [1] (female, plasma, inhaled or intranasal, 20 mg, Tmax) is 13 min; in data set [1], 16 min. Besides, the “Effect of inclusion of chitosan on bioavailability” value in data set [1] (intranasal solution with vs without chitosan) is recorded as “significantly enhanced”.
`Cc1ccc(-c2nc3ccc(C)cn3c2CC(=O)N(C)C)cc1` [zolpidem tartrate]: the solubility in data set [2] (SBE-CD 100 mg/ml, 5 mg/ml chitosan glutamate, read-out: Zolpidem tartrate solubility in presence of 5 mg/ml chitosan glutamate) turned out to be 46.2 mg/mL; in data set [2] (SBE-CD 100 mg/ml, no chitosan, read-out: Zolpidem tartrate solubility), 41.9 mg/mL; in data set [2] (SBE-CD 150 mg/ml, 5 mg/ml chitosan glutamate, read-out: Zolpidem tartrate solubility in presence of 5 mg/ml chitosan glutamate), 51.9 mg/mL; in data set [2] (SBE-CD 150 mg/ml, no chitosan, read-out: Zolpidem tartrate solubility), 46.5 mg/mL; in data set [2] (SBE-CD 200 mg/ml, 5 mg/ml chitosan glutamate, read-out: Zolpidem tartrate solubility in presence of 5 mg/ml chitosan glutamate) it was 55.6 mg/mL; in data set [2] (SBE-CD 200 mg/ml, no chitosan, read-out: Zolpidem tartrate solubility) it was 57.3 mg/mL. Moreover, the solubility in data set [2] (SBE-CD 250 mg/ml, 5 mg/ml chitosan glutamate, read-out: Zolpidem tartrate solubility in presence of 5 mg/ml chitosan glutamate) was found to be 55.9 mg/mL; in data set [2] (SBE-CD 250 mg/ml, no chitosan, read-out: Zolpidem tartrate solubility) it was 56.1 mg/mL; in data set [2] (SBE-CD 300 mg/ml, 5 mg/ml chitosan glutamate, read-out: Zolpidem tartrate solubility in presence of 5 mg/ml chitosan glutamate), 63.7 mg/mL; in data set [2] (SBE-CD 300 mg/ml, no chitosan, read-out: Zolpidem tartrate solubility) it was 57.5 mg/mL; in data set [2] (SBE-CD 400 mg/ml, 5 mg/ml chitosan glutamate, read-out: Zolpidem tartrate solubility in presence of 5 mg/ml chitosan glutamate), 68.1 mg/mL; in data set [2] (SBE-CD 400 mg/ml, no chitosan, read-out: Zolpidem tartrate solubility) it was 69 mg/mL. The solubility in data set [3] (HP-CD 200 mg/ml) was in the range of 25 to 31 mg/mL; in data set [3] (HP-CD 300 mg/ml), 31 to 36 mg/mL; in data set [3] (HP-CD 400 mg/ml), 36 to 50 mg/mL; in data set [3] (M-CD 200 mg/ml), 25 to 31 mg/mL; in data set [3] (M-CD 300 mg/ml) it was 31 to 36 mg/mL; in data set [3] (M-CD 400 mg/ml), 31 to 36 mg/mL. In addition, the solubility in data set [3] (SBE-CD 200 mg/ml) was over 50 mg/mL; in data set [3] (SBE-CD 300 mg/ml), 50 to 56 mg/mL; in data set [3] (SBE-CD 400 mg/ml) it was about 60 mg/mL.
